Reference: paper PMC5290327, “SC83288 is a clinical development candidate for the treatment of severe malaria” (Nature Communications, 2017)
Values after ≈ are worked out from the molar mass of the structure shown. Values joined by “and” are separate entries in the source; they are usually repeats but may differ in a detail not shown here. Equal entries are not always repeated.

How the values were obtained:
[1] = Solubility in water; details: water
[2] = system: synchronized Dd2 rings, trophozoites, schizonts; assay: Stage-specific activity, 6 h exposure, [3H] hypoxanthine; assay type: cell-based; details: Plasmodium falciparum, DD2, 6 h
[3] = system: KV channel; assay: Radioligand binding
[4] = system: 13 human cytochrome P450 enzymes; assay: Inhibition of cytochrome P450 enzymes, whole panel; details: 10 μM
[5] = target: T1, H1 (h) (Homo sapiens, UniProt P35367); assay type: binding
T1 construct: Cerep
T1 sequence (P35367 whole entry): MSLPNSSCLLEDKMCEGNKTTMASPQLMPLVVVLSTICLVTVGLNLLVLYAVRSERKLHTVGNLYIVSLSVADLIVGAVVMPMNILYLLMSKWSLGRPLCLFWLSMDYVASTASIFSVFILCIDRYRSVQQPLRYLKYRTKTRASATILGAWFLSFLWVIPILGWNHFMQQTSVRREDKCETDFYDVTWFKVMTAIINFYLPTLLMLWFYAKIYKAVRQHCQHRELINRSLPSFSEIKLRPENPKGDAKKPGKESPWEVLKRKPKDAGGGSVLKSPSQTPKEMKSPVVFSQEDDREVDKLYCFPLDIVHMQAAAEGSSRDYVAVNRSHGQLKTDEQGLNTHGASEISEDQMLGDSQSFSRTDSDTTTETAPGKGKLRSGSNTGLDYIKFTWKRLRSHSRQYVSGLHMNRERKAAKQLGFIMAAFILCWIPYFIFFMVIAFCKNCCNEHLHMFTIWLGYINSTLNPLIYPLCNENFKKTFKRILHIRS

[6] = target: T2, CCR1 (h) (Homo sapiens, UniProt P32246); assay: Radioligand binding
T2 construct: Cerep
T2 sequence (P32246 1-355): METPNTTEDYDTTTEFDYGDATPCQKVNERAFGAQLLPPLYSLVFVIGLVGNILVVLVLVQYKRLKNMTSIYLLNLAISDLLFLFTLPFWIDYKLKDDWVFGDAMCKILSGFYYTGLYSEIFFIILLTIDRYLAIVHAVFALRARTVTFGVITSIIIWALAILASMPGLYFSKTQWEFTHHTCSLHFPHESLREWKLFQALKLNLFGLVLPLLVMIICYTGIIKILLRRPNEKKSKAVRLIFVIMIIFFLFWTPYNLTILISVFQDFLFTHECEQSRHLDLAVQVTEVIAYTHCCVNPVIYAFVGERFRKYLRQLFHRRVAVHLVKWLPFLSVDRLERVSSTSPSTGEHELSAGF

[7] = target: CYP2C8 (Homo sapiens, UniProt P10632); assay: CYP inhibition, human liver microsomes; details: CYP2C8, amodiaquine to Desethylamodiaquine, 10 µM
Sequence of CYP2C8 (P10632 whole entry): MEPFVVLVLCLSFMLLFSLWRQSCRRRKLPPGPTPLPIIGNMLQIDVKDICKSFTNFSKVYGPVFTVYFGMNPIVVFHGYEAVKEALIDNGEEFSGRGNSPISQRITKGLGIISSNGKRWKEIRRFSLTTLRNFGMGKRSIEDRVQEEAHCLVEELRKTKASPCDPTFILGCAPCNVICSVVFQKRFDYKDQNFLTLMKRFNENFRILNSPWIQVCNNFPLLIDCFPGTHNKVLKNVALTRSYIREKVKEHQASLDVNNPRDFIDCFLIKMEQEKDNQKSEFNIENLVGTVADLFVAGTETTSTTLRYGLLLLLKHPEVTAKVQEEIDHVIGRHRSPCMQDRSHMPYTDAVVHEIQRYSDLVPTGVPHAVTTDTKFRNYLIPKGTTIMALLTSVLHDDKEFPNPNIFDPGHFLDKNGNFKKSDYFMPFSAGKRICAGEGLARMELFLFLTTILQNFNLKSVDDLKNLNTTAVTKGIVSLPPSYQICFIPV

[8] = system: Balb C 3T3 cells; assay: Cytotoxicity; details: 50 μM
[9] = In vitro metabolism in liver microsomes; details: monkey liver microsomes, 10 μM
[10] = target: CYP2C19 (Homo sapiens, UniProt P33261); assay: CYP inhibition, human liver microsomes; details: 10 µM
Sequence of CYP2C19 (P33261 whole entry): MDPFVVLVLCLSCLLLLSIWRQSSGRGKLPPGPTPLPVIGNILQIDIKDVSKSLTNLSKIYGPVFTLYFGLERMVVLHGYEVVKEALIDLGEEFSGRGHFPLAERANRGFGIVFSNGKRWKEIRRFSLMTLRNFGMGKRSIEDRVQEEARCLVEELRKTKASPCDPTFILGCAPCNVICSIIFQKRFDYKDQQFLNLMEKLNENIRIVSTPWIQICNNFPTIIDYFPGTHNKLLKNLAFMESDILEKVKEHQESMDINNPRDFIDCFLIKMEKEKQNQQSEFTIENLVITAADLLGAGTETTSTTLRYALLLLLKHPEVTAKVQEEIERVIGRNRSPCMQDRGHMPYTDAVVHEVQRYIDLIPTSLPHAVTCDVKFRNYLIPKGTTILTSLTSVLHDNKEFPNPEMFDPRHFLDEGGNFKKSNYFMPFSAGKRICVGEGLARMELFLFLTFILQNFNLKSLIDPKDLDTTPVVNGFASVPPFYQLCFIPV

[11] = system: drug-resistant P. falciparum lab strains other than Dd2; assay: Growth inhibition assay; assay type: cell-based; details: Plasmodium falciparum
[12] = system: Dd2 P. falciparum parasites; assay: In vitro parasite reduction ratio assay (Sanz protocol); assay type: cell-based, Plasmodium falciparum; details: for In vitro PCT99.9% / In vitro lag phase: 10 times IC50, Dd2; for parasites killed within the first 48 h of treatment: in vitro assay and NSG mouse model
[13] = target: T3, MC4 (h) (Homo sapiens, UniProt P32245); assay: Radioligand binding
T3 construct: Cerep
T3 sequence (P32245 whole entry): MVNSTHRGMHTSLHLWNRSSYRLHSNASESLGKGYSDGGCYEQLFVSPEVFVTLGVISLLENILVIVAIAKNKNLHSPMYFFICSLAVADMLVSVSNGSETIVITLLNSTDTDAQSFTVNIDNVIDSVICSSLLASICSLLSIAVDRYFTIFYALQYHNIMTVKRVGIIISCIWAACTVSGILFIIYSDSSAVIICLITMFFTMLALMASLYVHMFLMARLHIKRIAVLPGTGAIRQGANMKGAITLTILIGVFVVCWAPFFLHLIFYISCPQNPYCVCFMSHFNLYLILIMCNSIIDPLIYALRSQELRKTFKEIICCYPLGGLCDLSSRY

[14] = target: CYP2B6 (Homo sapiens, UniProt P20813); assay: CYP inhibition, human liver microsomes; details: CYP2B6, bupropion to OH-bupropion, 10 µM
Sequence of CYP2B6 (P20813 whole entry): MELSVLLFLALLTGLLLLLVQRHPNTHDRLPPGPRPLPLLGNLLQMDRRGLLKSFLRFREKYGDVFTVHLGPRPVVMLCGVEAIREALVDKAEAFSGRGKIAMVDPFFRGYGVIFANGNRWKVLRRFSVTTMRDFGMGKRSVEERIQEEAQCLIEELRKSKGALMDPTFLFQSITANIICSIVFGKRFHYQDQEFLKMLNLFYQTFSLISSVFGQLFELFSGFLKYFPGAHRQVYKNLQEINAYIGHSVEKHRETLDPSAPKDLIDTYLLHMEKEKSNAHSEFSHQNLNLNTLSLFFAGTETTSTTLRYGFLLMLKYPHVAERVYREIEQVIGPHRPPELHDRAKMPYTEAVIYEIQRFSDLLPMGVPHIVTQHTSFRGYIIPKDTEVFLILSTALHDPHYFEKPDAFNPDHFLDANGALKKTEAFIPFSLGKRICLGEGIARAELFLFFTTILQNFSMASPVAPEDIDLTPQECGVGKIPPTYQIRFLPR

[15] = system: late stage (IV and V) gametocytes, NF54^Pfs16; assay: Gametocytocidal activity, luciferase assay; assay type: cell-based; details: Plasmodium falciparum, 72 h
Experimental: (§1) Activity against early- and late-stage gametocytes was determined in miniaturized 384-wells plate assays as previously described. Briefly, gametocytes from a recombinant line NF54^Pfs16, expressing a green fluorescent protein–luciferase reporter gene under the gametocyte-specific Pfs16 promoter were induced and purified as previously described; gametocytes were then treated either on day 1 (stage I gametocytes) or day 8 of gametocytogenesis (stage IV gametocytes) with serially diluted SC81458 or SC83288 to achieve a final top concentration of 40 μM (0.4% dimethylsulphoxide(DMSO)). After 72 h of incubation, gametocyte inhibition was assessed by luminometry, after addition of Steadylite plus luciferase detection kit (PerkinElmer) to the plate wells[58][59].

[16] = system: early stage (I–III) gametocytes, NF54^Pfs16; assay: Gametocytocidal activity, luciferase assay; assay type: cell-based; details: Plasmodium falciparum, 72 h
Experimental: as §1

[17] = target: T4, A2A (h) (Homo sapiens, UniProt P29274); assay: Radioligand binding
T4 construct: Cerep (contract study)
T4 sequence (P29274 whole entry): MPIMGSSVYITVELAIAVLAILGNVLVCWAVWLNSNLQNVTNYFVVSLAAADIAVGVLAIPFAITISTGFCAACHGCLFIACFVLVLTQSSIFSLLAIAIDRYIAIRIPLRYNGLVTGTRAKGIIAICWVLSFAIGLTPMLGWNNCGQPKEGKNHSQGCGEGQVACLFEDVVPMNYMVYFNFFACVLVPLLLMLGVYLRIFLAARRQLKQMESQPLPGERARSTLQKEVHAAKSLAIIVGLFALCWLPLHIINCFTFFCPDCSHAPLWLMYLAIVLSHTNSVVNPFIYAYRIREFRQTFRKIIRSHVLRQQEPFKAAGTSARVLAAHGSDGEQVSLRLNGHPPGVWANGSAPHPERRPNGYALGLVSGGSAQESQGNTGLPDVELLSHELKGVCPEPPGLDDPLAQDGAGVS

[18] = target: T5, 5-HT6 (h) (Homo sapiens, UniProt P50406); assay: Radioligand binding
T5 construct: Cerep (contract screening)
T5 sequence (P50406 whole entry): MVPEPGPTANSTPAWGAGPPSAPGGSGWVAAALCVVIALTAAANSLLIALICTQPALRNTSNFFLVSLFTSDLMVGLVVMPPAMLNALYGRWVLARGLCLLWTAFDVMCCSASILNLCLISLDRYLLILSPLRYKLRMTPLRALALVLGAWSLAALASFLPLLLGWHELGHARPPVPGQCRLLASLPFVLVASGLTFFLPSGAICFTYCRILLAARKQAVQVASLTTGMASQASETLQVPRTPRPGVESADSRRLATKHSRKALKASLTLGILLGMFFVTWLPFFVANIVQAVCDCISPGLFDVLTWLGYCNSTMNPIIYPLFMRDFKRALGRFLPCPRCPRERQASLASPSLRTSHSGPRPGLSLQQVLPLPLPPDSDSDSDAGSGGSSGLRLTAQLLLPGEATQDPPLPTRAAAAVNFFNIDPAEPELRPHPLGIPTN

[19] = target: T6, hERG channel (Homo sapiens, UniProt Q12809); assay: hERG profiling, whole cell patch-clamp; assay type: cell-based
T6 construct: expressed in transfected cells; host or cells: HEK 293
T6 sequence (Q12809 whole entry): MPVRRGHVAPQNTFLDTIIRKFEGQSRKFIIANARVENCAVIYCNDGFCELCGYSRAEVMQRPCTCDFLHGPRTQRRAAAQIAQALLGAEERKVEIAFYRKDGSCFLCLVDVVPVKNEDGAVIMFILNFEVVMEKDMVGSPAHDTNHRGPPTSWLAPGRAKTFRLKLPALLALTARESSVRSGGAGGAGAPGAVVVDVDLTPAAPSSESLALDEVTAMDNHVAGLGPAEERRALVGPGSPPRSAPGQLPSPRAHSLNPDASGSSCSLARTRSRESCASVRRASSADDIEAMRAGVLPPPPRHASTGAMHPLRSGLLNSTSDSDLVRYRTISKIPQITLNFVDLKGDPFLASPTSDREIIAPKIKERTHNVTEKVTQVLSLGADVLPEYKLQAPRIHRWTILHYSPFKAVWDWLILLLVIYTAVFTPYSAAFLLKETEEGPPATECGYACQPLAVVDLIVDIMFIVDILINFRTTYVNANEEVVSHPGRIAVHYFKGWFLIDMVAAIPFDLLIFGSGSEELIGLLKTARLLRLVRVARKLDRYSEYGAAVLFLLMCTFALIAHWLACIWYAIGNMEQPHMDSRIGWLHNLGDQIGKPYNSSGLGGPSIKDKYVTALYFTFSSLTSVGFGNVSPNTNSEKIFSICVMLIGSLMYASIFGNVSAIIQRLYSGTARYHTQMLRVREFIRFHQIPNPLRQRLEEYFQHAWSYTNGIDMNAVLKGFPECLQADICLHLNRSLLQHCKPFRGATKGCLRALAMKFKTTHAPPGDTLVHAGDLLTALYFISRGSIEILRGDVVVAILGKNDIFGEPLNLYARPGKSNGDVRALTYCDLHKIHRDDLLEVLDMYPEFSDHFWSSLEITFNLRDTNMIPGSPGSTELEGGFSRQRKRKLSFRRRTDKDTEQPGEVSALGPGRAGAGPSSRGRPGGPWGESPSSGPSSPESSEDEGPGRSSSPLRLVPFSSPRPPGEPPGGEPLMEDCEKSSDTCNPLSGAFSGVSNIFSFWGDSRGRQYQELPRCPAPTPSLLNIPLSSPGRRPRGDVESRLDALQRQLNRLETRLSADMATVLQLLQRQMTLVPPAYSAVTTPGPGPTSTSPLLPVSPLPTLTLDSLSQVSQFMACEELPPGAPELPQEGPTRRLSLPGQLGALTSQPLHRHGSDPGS
Experimental: A HEK 293 cell line (Sigma Aldrich, catalogue number: 85120602) constitutively expressing the hERG channel in the membrane was used for the assay. The cells were cultured in MEM with Earle's salts and L-glutamine (10% FCS, non-essential amino acids, 300 μg ml^−1 Geneticin (G418)) and kept at 37 °C and under 5% CO2. Cells were routinely split every 3–4 days at a 1:5–1:10 ratio. The electrophysiological measurements were performed using the whole cell patch-clamp method. Extracellular bath solution contained 137 mM NaCl, 4 mM KCl, 1 mM MgCl2, 1.8 mM CaCl2, 10 mM glucose, 10 mM HEPES (pH 7.4 with NaOH), the intracellular pipette solution 130 mM KCl, 1 mM MgCl2, 5 mM MgATP, 5 mM EGTA and 10 mM HEPES (pH 7.2 with KOH). To assess the effects of SC81458 and SC83288 on the current through the hERG channel, a 1,500 ms of conditioning voltage pulse was applied every 20 s by the holding membrane potential (−80 mV) is carried out to +40 mV followed by a 500 ms test pulse of +40 mV to −40 mV. The amplitude of the current peak induced by the test pulse was determined at equilibrium (I0) and after (Idrug) addition of the substance. After the application of the substance, the cells were rinsed with extracellular bath solution until a complete recovery of the current occurred; otherwise, the cells were replaced with new ones.

[20] = Stability in physiological solutions; assay type: physicochemical; details: artificial gastric juice, simulated intestinal fluid, PBS, human plasma; 6 h at 37 °C
Experimental: SC81458 and SC83288 were soluble in water (890 and 940 μg ml^−1, respectively) and organic solvents. […] The compounds were stable in different physiological solutions, including artificial gastric juice, simulated intestinal fluid, phosphate-buffered saline and human plasma, when incubated for 6 h at 37 °C.

[21] = CYP2C19a, omeprazole to 5-OH-omeprazole
[22] = CYP2C19b, omeprazole to desmethylomeprazole

Row | SMILES | solubility [1] [µg/mL] | IC50 ([2]; ring stages) [nM] | IC50 ([2]; schizonts) [nM] | IC50 ([2]; trophozoites) [nM] | Inhibition of control specific binding [3] [%] | inhibition potential towards 13 human cytochrome P450 enzymes [4] | Inhibition of control specific binding [5] [%] | Inhibition of control specific binding [6] [%] | Remaining enzyme activity [7] [%] | in vitro propagation / cytotoxicity [8] | remaining after 60 min of incubation [9] | Remaining enzyme activity [10, 21] [%] | Remaining enzyme activity [10, 22] [%] | IC50 [11] [nM] | In vitro PCT99.9% [12] | In vitro lag phase [12] [h] | parasites killed within the first 48 h of treatment [12] [%] | Inhibition of control specific binding [13] [%] | Remaining enzyme activity [14] [%] | IC50 [15] [nM] | further results
1 | CCCCN1CCN(C(=N)c2cccc(NC(=O)Nc3ccc(S(=O)(=O)NCc4ccc(S(N)(=O)=O)cc4)cc3)c2)CC1 [SC81458, 4-(3-(3-((4-butylpiperazin-1-yl)(imino)methyl)phenyl)ureido)-N-(4-sulfamoylbenzyl) benzenesulfonamide] | 890 (≈ 1420 µM) | 5000 ± 1000 | 70 ± 10 | 37 ± 3 | 0 | low | 6 | -13 | 95 | did not affect | almost completely metabolized | 87 | 89 | < 20 | 37±4 h and 37±4 (4) h | <5 | ≥ 99.9 | -10 | 87 | 1800 ± 200 | IC50 [16]: 76 ± 6 nM; Inhibition of control specific binding [17]: 5%; Inhibition of control specific binding [18]: -2%; hERG activity retained ([19]; 60 μM): > 90%; stability in physiological solutions [20]: stable
2 | COC(=O)N1CCN(C(=N)c2cccc(NC(=O)Nc3ccc(S(=O)(=O)NCc4ccc(S(N)(=O)=O)cc4)cc3)c2)CC1 [SC83288, methyl 4-(imino(3-(3-(4-(N-(4-sulfamoylbenzyl)sulfamoyl)phenyl)ureido)phenyl)methyl) piperazine-1-carboxylate] | 940 (≈ 1490 µM) | 3000 ± 1000 | 110 ± 30 | 40 ± 4 | 2 | low | 8 | -2 | 89 | did not affect | 51% | 104 | 96 | < 20 | 51±6 h and 51±6 (4) h | <5 | ≥ 99.9 | 4 | 95 | > 30000 | IC50 [16]: 199 ± 30 nM; Inhibition of control specific binding [17]: 13%; Inhibition of control specific binding [18]: 11%; hERG activity retained ([19]; 20 μM): > 90%; hERG channel remaining active ([19]; 100 μM): 50%; stability in physiological solutions [20]: stable
